The values below come from patent publication US20180008717A1, “PHARMACEUTICAL COMPOSITION WITH ANALGESIC AND ANTI-INFLAMMATORY ACTIVITY” (priority 2016, published 2018).

What all share (assay type): in vivo
For one test, the system named is rat paw. The test can be described thus: AITC-induced rat paw edema assay. To be noted: for time of inflammation maximum following AITC injection: 2 percent w/w ointment, vehicle edema maximum at 3 hours; for ability to decrease the AITC-induced inflammatory state compared with ibuprofen: 2 percent w/w ointment topically; for level of AITC-induced edema (volume of affected paw): AITC 100 microgram per paw, 2 percent w/w ointment topically 30 minutes before and at each time point, percentage of the control. As to the method: One-way analysis of variance (ANOVA) followed by Tukey's post hoc comparison.
The anti-inflammatory effect was determined using an AITC-induced rat paw edema assay. […] The ointments were additionally applied by gently rubbing on the affected paw at each time point.

The test system of test [1] is mice. Put plainly: Hot plate test (topical ointment). To be noted: hot plate 55 degrees Celsius, 2 percent w/w ointment topically 5 min before, cut-off 60 seconds, mean±SEM. On the procedure:
(§1) Example 3 illustrates the analgesic activity of the esters evaluated using models of providing thermal stimuli (hot plate) and chemical stimuli (formalin, capsaicin and allyl isothiocyanate) to the subjects i.e., mice.
TEST 1: Hot plate test: The hot plate test (HPT) is often used for investigation of a noxious stimulus (heat) in models of acute pain. Classically, the latency of the animal's response to the stimulus is recorded as the dependent variable.
All compounds, including BZC, were applied topically in an ointment (2 percent weight by weight based on the total weight of formulation) prepared according to the procedure described in Example 1. The ointments were applied both to the palmar and plantar surfaces of the paws of the mice by gently rubbing 5 min before analgesic activity evaluation. A corresponding amount of the ointment base were similarly applied for mice used as control animals. The mice were placed on a hot plate maintained at 55 degrees Celsius, one at a time. In this experiment, latency to respond to the heat stimulus was determined by the amount of time (in seconds) it took for a mouse to lick one of its paws. Cut-off time was fixed at 60 seconds to minimize the tissue damage that occurs during prolonged contact with heated surface. All values are expressed as the mean±standard errors of the mean (SEM) in all the tables.
On the technique in general: Thermal pain tests record how soon the animal reacts.

Test [2] concerns mice. Put plainly: Capsaicin test (topical ointment). To be noted: capsaicin 6 micrograms/paw s.c., 2 percent w/w ointment topically 5 min before, observed 5 minutes, mean±SEM.
Text: as §1
TEST 2: Capsaicin test: Capsaicin (8-methyl-N-vanillyl-6-nonenamide), the pungent substance obtained from hot red pepper, is used to evaluate analgesic activity on mice, for compounds synthesized herein.
All compounds, including BZC, were applied topically as an ointment (2 percent weight by weight based on the total weight of formulation) prepared according to the procedure described in Example 2. The ointments were applied to the affected paws' surface by gently rubbing 5 min before analgesic activity evaluation. A corresponding amount of the ointment base were similarly applied for mice used as control animals. To evaluate analgesic activity 20 microliter of capsaicin solution in 1,2-propylene glycol (6 micrograms/paw) was injected subcutaneously under the skin of the dorsal surface of the hindpaw. Animals were observed individually for 5 minutes after capsaicin administration. The amount of time that mice spent licking the injected paw was recorded and considered as an index of pain.

Test [3] concerns mice. Put plainly: Formalin test, early phase (topical ointment). To be noted: 20 microliter 2 percent formalin s.c., 2 percent w/w ointment topically 5 minutes before, 0 to 5 min (early phase), mean±SEM. As to the method: as §1
TEST 3: Formalin test: The formalin test was used to determine the potential analgesic effects of compounds for states of persistent pain in which tissue damage occurs. The nociceptive response produced by formalin is biphasic: an early response (0 to 5 min after injection) and a late response (20 to 30 minutes after injection). These two phases can be distinguished pharmacologically: phase 1 is supposed to represent a direct chemical stimulation of nociceptors while phase 2 is thought to involve inflammation. Aiming at assessment precisely response caused by a burst of activity from pain fibers we measured the licking time as an indicator of nociception only during the first (early) phase. All compounds, including BZC, were applied topically in an ointment (2 percent weight by weight based on the total weight of formulation) prepared according to the procedure described in Example 2. The ointments were applied to the affected paws' surface by gently rubbing 5 minutes before analgesic activity evaluation. A corresponding amount of the ointment base were similarly applied for mice used as control animals. After that, 20 microliter of a 2 percent formalin solution in 0.9 percent NaCl (w/w) was injected subcutaneously into the dorsal surface of the hindpaw. The animal then was placed in an individual plexiglass cage. The time spent by the animal in licking the injected paw was measured from 0 to 5 min (early phase) after formalin administration and was considered as an indicator of pain response.

For test [4], the system named is mice. Put plainly: Allyl isothiocyanate (AITC, TRPA1 agonist) test (topical ointment). To be noted: 20 microliters 0.5 percent AITC s.c., 2 percent w/w ointment topically 5 min before, observed 10 minutes, mean±SEM. As to the method: as §1
TEST 4: Allyl isothiocyanate test: The analgesic activity was evaluated by a model of chemical stimulus with the use of TRPA1 agonist—allyl isothiocyanate (AITC).
20 Microliters of 0.5 percent (w/w in 1,2-propylene glycol) AITC solution was injected subcutaneously under the skin of the dorsal surface of the right hindpaw. All compounds, including BZC, were applied topically in an ointment (2 percent weight by weight based on the total weight of formulation) prepared according to the procedure described in Example 2. The ointments were applied to the affected paws' surface by gently rubbing 5 min before analgesic activity evaluation. A corresponding amount of the ointment base were similarly applied for mice used as control animals. AITC dose was selected based on our preliminary trials and from literature citations. Animals were observed individually for 10 minutes after AITC administration. The amount of time that mice spent licking the injected paw (reaction time in seconds) was recorded and considered as an index of pain.

Structures can show the parent of a compound that is named as a salt.

For the molecule `CC(C)Cc1ccc(C(C)C(=O)O)cc1` (stereo not drawn) [ibuprofen, reference compound], the “time of inflammation maximum following AITC injection” value in the test with rat paw is given as “about 1.5 hours”.

With `CCOC(=O)c1ccc(N)cc1` [Benzocaine, benzocaine, reference compound], the figures for the “Reaction time (latency to lick a paw)” value with mice [1] and in the test on mice [1] (listed as BZC) were 18.3 ± 0.9 s and “about 18.3 sec”, respectively. Further, the Licking time amounted to 28.7 ± 6.6 s in the test with mice [2], 36.3 ± 2.4 s with mice [3] and 48.0 ± 2.0 s in the test with mice [4].

As to `Cc1ccc(C(C)C)c(OC(=O)CCCN)c1.Cl` [Compound 2, 2-isopropyl-5-methylphenyl 4-aminobutyrate hydrochloride], the “Reaction time (latency to lick a paw)” value in the test on mice [1] (listed as COMPOUND 2, hydrochloride) was 21.3 ± 0.9 s; with mice [1] (listed as compound 2, hydrochloride) it was “about 21.3 sec”. Moreover, the Licking time in the test with mice [2] was 19.7 ± 2.6 s; in the test with mice [3], 52.2 ± 6.6 s; with mice [4], 20.3 ± 5.8 s. The “ability to decrease the AITC-induced inflammatory state compared with ibuprofen” value in the test with rat paw is reported as “exceed reference drug ibuprofen”. The “time of inflammation maximum following AITC injection” value with rat paw is recorded as “about 1.5 hours”. In addition, the “level of AITC-induced edema (volume of affected paw)” value with rat paw stood at 112%.

As to `Cc1ccc(C(C)C)cc1OC(=O)CCCN.Cl` [Compound 3, 5-isopropyl-2-methylphenyl 4-aminobutyrate hydrochloride], the “Reaction time (latency to lick a paw)” value was 19.3 ± 3.8 s with mice [1] (listed as COMPOUND 3, hydrochloride) and “about 19.3 sec” in the test with mice [1] (listed as compound 3, hydrochloride). The Licking time with mice [2] was 12.0 ± 1.2 s; with mice [3], 31.1 ± 8.3 s; with mice [4], 22.8 ± 4.3 s. Further, the “ability to decrease the AITC-induced inflammatory state compared with ibuprofen” value in the test with rat paw was “relatively comparable effects with ibuprofen”. Also, in the test on rat paw, the “time of inflammation maximum following AITC injection” value is on record as “about 1.5 hours”.

Turning to `COc1ccccc1OC(=O)CCCN.Cl` [Compound 4, 2-methoxylphenyl 4-aminobutyrate hydrochloride], the “Reaction time (latency to lick a paw)” value was 16.5 ± 3.7 s in the test with mice [1] (listed as COMPOUND 4, hydrochloride) and “about 16.5 sec” with mice [1] (listed as compound 4, hydrochloride). In addition, the Licking time with mice [2] is 24.3 ± 3.3 s; with mice [3] it was 47.6 ± 9.8 s; with mice [4], 25.3 ± 1.5 s. Moreover, in the test on rat paw, the “ability to decrease the AITC-induced inflammatory state compared with ibuprofen” value is given as “relatively comparable effects with ibuprofen”. For the same molecule, in the test on rat paw, the “time of inflammation maximum following AITC injection” value is “about 1.5 hours”.

For the molecule `CC(C)[C@@H]1CC[C@@H](C)C[C@H]1OC(=O)CCCN` [Compound 1, (1R,2S,5R)-2-isopropyl-5-methylcyclohexyl-4-aminobutyrate hydrochloride], the “Reaction time (latency to lick a paw)” value with mice [1] (listed as COMPOUND 1, hydrochloride) was 30.2 ± 2.6 s; in the test on mice [1] (listed as compound 1, hydrochloride) it was “about 30.2 sec”. Also, the Licking time with mice [2] is 4.3 ± 0.9 s; in the test with mice [3], 30.3 ± 7.4 s; in the test on mice [4] it was 2.7 ± 0.3 s. Besides, the “ability to decrease the AITC-induced inflammatory state compared with ibuprofen” value in the test on rat paw is “exceed reference drug ibuprofen”. Besides, in the test on rat paw, the “time of inflammation maximum following AITC injection” value is “about 1.5 hours”. Further, the “level of AITC-induced edema (volume of affected paw)” value in the test on rat paw is listed as 136%.
